In ChEMBL document CHEMBL5729023, “Tricyclic compounds for use in treatment of proliferative disorders” (2022):

The compounds below were run against PRMT5/MEP50 complex (Homo sapiens, UniProt O14744) (assay: Chemiluminescent Assay: A PRMT5 chemiluminescent assay was used to measure the […] activity of PRMT5. Biotinylated histone peptides were synthesized and attached to 384-well plates. Compound serial dilutions were performed and added to the assay plate. Histone H4 monomethyl R3 antibody was obtained from Abcam. A master mix for each well was prepared and human PRMT5/MEP50 (expressed in HEK293 cells) diluted in assay buffer to a concentration of 5 ng/μL. The reaction was incubated and slowly rotated for 60 minutes at the point of PRMT5/MEP50 addition. The supernatant from the wells was removed and blocking buffer was added to each well and rotated for 10 minutes. The primary antibody was diluted and added to every well for 60 minutes, before it was removed and the wells washed. The horse radish peroxidase (HRP)-coupled secondary antibody was diluted and added to each well with an incubation time of 30 minutes. The HRP chemiluminescent substrate was added to every well. The plate was read on a Flourstar Omega BMG Labtech instrument (Ortenberg, Germany) and the analysis of IC50 was performed using the Flourstar Omega BMG Labtech software.).
PRMT5/MEP50 complex, sequence (O14744 whole entry): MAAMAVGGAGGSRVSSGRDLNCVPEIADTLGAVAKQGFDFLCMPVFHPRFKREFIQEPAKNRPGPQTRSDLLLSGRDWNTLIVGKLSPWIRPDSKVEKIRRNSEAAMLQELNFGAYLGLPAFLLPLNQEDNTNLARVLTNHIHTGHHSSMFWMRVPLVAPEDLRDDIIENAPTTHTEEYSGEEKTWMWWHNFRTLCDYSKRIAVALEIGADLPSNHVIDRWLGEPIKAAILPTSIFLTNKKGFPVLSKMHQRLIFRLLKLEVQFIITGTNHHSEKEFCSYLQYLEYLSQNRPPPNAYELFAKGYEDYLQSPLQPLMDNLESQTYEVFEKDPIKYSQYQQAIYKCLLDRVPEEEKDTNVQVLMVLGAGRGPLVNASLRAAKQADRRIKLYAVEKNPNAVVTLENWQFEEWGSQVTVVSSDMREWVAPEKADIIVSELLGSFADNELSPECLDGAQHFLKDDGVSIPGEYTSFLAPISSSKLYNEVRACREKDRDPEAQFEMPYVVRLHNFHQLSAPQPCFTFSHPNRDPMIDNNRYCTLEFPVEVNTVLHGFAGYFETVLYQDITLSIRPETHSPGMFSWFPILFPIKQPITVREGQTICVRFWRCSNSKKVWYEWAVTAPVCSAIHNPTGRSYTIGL
PRMT5/MEP50 complex, sequence (Q9BQA1 whole entry, further chain): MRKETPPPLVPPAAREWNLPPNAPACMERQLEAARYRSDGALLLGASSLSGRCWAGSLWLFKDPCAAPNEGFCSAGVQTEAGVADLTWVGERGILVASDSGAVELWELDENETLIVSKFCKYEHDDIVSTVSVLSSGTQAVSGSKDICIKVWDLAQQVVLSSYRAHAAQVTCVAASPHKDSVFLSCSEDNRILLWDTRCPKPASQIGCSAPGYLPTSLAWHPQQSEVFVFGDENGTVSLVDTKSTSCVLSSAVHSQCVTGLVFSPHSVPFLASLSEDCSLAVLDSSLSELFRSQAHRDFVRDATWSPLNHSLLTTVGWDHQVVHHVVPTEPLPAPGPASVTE
Assay type: biochemical

| Compound | IC50 [µM] |
| --- | --- |
| O=C(NCC(O)CN1CCc2[nH]c3ccccc3c2C1)c1cc(NC2CCC2)ncn1 (centres undefined) | 1.69 |
| Cn1c2c(c3ccccc31)CN(CC(O)CNC(=O)c1ccc(C(=O)N3C4CCC3COC4)cc1)CC2 (centres undefined) | 3.34 |
| CN1CCN(c2nc(NC3CCC3)cc(C(=O)NCC(O)CN3CCc4[nH]c5ccccc5c4C3)n2)CC1 (centres undefined) | 0.528 |
| O=C(NCC(O)CN1CCc2[nH]c3ccccc3c2C1)c1ccc(C(=O)N2C3CCC2COC3)cc1 (centres undefined) | 1.73 |
